Source: ChEMBL document CHEMBL4622970, “Design, Synthesis, and Evaluation of New Quinazolinone Derivatives that Inhibit Bloom Syndrome Protein (BLM) Helicase, Trigger DNA Damage at the Telomere Region, and Synergize with PARP Inhibitors” (J Med Chem, 2020)
Calls of active or inactive are those of the source. The rule behind the calls is not given here.

Legend:
[1] = molecular target: T1, RecQ-like DNA helicase BLM (Homo sapiens, UniProt P54132); test: (§1) Inhibition of His-tagged BLM (642 to 1296 residues) (unknown origin) expressed in Escherichia coli BL21 (DE3) cells assessed as reduction in DNA unwinding activity using 5'-biotin-labeled forked DNA as substrate preincubated for 1 hr followed by substrate addition and measured after 1 hr by electrophoretic mobility shift assay
[2] = molecular target: T1, RecQ-like DNA helicase BLM; test: as §1, with “activity at <10 uM” for “activity”

T1 sequence (P54132 whole entry, the tested form may be a part): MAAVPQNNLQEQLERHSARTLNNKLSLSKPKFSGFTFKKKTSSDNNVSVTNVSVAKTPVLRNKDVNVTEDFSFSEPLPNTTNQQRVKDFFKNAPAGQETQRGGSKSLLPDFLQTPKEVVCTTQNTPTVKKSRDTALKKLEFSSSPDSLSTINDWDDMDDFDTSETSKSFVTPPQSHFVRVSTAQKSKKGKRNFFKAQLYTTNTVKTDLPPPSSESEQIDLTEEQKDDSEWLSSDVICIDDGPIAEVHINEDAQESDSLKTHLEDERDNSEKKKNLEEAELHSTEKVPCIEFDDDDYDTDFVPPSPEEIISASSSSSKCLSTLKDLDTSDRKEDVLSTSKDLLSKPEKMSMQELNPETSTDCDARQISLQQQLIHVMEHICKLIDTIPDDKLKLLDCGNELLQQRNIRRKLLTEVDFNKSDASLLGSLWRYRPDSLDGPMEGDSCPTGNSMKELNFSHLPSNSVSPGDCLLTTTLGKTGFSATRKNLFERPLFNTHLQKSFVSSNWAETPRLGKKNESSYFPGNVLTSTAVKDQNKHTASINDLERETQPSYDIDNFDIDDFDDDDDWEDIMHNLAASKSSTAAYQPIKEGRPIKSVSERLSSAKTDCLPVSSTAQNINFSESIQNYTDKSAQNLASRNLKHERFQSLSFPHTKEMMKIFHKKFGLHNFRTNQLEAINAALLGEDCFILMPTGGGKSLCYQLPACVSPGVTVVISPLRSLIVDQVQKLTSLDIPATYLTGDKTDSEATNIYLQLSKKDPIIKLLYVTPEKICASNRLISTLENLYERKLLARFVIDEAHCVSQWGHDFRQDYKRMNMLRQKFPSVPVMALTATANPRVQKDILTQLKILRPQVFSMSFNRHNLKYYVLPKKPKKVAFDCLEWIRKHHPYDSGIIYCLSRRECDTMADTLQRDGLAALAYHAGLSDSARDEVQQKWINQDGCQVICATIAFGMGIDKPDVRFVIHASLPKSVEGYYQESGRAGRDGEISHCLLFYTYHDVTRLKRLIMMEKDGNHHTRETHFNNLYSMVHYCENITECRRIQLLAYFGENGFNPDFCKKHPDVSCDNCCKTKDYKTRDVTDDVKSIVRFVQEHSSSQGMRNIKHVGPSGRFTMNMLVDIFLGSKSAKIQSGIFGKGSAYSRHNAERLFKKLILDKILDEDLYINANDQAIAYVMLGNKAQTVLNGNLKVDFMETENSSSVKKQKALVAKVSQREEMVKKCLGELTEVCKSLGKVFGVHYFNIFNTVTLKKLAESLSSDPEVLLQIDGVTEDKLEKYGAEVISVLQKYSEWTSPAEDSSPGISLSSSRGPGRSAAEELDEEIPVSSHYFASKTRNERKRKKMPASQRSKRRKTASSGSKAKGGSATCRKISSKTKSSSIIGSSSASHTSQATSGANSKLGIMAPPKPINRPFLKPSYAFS

SMILES | IC50 [1] [µM] | Inhibition (active/not active) [2]
CCN(CC)CCNc1cc2nc3n(c(=O)c2cc1F)CCC3Cc1ccc(N(CC)CC)cc1O (stereo not given) |  | inactive
CCN(CC)CCNc1cc2nc3n(c(=O)c2cc1F)CC/C3=C\c1ccc(OC)cc1 |  | inactive
CCN(CC)CCNc1cc2nc3n(c(=O)c2cc1F)CC/C3=C\c1cccs1 |  | inactive
CCNc1cc2nc(/C=C/c3ccc(C(C)C)cc3)n(CC)c(=O)c2cc1F |  | inactive
CCN(CC)CCNc1cc2nc3n(c(=O)c2cc1F)CCC3Cc1ccc(CC(C)C)cc1 (stereo not given) | > 10 | Active
CCN(CC)CCCNc1c2c(nc3ccccc13)/C(=C/c1ccc(C(C)(C)C)cc1)CC2 |  | inactive
CCN(CC)CCNc1cc2nc3n(c(=O)c2cc1F)CC/C3=C\c1ccc(O)cc1O | > 10 | Active
CCN(CC)CCNc1cc2nc3n(c(=O)c2cc1F)CC/C3=C\c1ccc(O)c(O)c1 | > 10 | Active
CCN(CC)CCCNc1cc2nc3n(c(=O)c2cc1F)CC/C3=C\c1ccccc1 |  | inactive
CCOCCNc1cc2nc3n(c(=O)c2cc1F)CC/C3=C\c1ccc(C(C)C)cc1 | > 10 | Active
CCN(CC)CCNc1cc2nc3n(c(=O)c2cc1F)CC/C3=C\c1ccccc1 |  | inactive
CC(=O)NCCNc1cc2nc3n(c(=O)c2cc1F)CC/C3=C\c1ccc(C(C)C)cc1 | > 10 | Active
CCN(CC)CCNc1cc2nc3n(c(=O)c2cc1F)CCC3Cc1ccc(N(C)C)cc1 (stereo not given) | > 10 | Active
CC(C)CCNc1cc2nc3n(c(=O)c2cc1F)CC/C3=C\c1ccc(C(C)C)cc1 |  | inactive

Continued, values first:

IC50 [1] [µM] | Inhibition (active/not active) [2] | SMILES
1.3 |  | CCN(CC)CCNc1ccc2c(=O)n3c(nc2c1)/C(=C/c1ccc(C(C)C)cc1)CC3
> 10 | Active | CC(C)c1ccc(/C=C2\CCc3c2nc2ccccc2c3NCCCN(C)C)cc1
> 10 | Active | CCN(CC)CCNc1cc2nc3n(c(=O)c2cc1F)CCC3Cc1ccc(C(C)C)cc1O (stereo not given)
> 10 | Active | CCN(CC)CCNc1cc2nc3n(c(=O)c2cc1F)CCC3Cc1ccc(C(C)(C)C)cc1 (stereo not given)
8.7 |  | CCN(CC)CCCNc1c2c(nc3ccccc13)/C(=C/c1ccc(C(C)C)cc1)CC2
4.7 |  | CCN(CC)CCCNc1cc2nc(/C=C/c3ccc(C(C)C)cc3)n(C)c(=O)c2cc1F
3.3 |  | CCCc1ccc(/C=C2\CCn3c2nc2cc(NCCN(CC)CC)c(F)cc2c3=O)cc1
2.8 |  | CCN(CC)CCCNc1cc2nc(/C=C/c3ccc(C(C)C)cc3)n(CC)c(=O)c2cc1F
> 10 | Active | CCN(CC)CCNc1cc2nc3n(c(=O)c2cc1F)CCC3Cc1ccc(C(C)C)cc1 (stereo not given)
> 10 | Active | CCN(CC)CCCNc1cc2nc(/C=C/c3ccc(C(C)C)cc3)[nH]c(=O)c2cc1F
6.4 |  | CCN(CC)CCNc1cc2nc3n(c(=O)c2cc1F)CC/C3=C\c1ccc(N(C)C)cc1O
3.1 |  | CCN(CC)CCNc1cc2nc3n(c(=O)c2cc1F)CC/C3=C\c1ccc(CC(C)C)cc1
3.6 |  | CCN(CC)CCCNc1cc2nc(/C=C/c3ccc(C(C)C)cc3)n(CC(C)C)c(=O)c2cc1F
> 10 | Active | CCN(CC)CCCNc1c2c(nc3ccccc13)/C(=C/c1ccc(CC(C)C)cc1)CC2
3.2 |  | CCc1ccc(/C=C2\CCn3c2nc2cc(NCCN(CC)CC)c(F)cc2c3=O)cc1
4.2 |  | CCN(CC)CCCNc1cc2nc3n(c(=O)c2cc1F)CC/C3=C\c1ccc(C(C)C)cc1O
4 |  | CCN(CC)CCNc1cc2nc3n(c(=O)c2cc1F)CC/C3=C\c1ccc(C(C)C)cc1O
1.8 |  | CCN(CC)CCCCNc1cc2nc3n(c(=O)c2cc1F)CC/C3=C\c1ccc(C(C)C)cc1
4.7 |  | CCN(CC)CCCNc1cc2nc(/C=C/c3ccc(CC(C)C)cc3)[nH]c(=O)c2cc1F
